{"source": "patent US20260176285A1", "about": "“SALT OF DIOXANE QUINOLINE COMPOUND, CRYSTAL FORM THEREOF, PREPARATION METHODS THEREFOR AND USES THEREOF” (Beijing Scitech-MQ Pharmaceuticals Limited, priority 2022, published 2026)", "assay_type_in_all_cases": "physicochemical", "key": {"[1]": {"test": "Hygroscopicity by dynamic moisture sorption (DVS)", "details": "DVS, listed as Di-p-toluenesulfonate salt crystal form A-IV", "description": "Dynamic moisture sorption (DVS): The curves were collected on a DVS Intrinsic of SMS (Surface Measurement Systems). At 25° C., the humidity range was 0% RH-95% RH, the step was 10% (the last step was 5%), and the dm/dt was 0.002%/min.\nThe hygroscopicity of the free compound of formula (I), mucate salt crystal form A-I, p-toluenesulfonate salt crystal forms A-II and B-III, di-p-toluenesulfonate salt crystal form A-IV and phosphate salt crystal form A-V was evaluated by dynamic moisture sorption instrument (DVS). Starting from 0% relative humidity (0% RH), the test collected the mass change percentage of the samples under constant temperature of 25° C. with humidity changes (0% RH-95% RH-0% RH)."}, "[2]": {"test": "Solid-state stability evaluation (XRPD, HPLC)", "details": "listed as Di-p-toluenesulfonate salt crystal form A-IV", "description": "The following 6 test samples were placed under 25° C./60% RH and 40° C./75% RH conditions for 1 week, and then the physical and chemical stability of the samples was tested by XRPD and HPLC.\nAt the same time, after the p-toluenesulfonate salt crystal form A-II and crystal form B-III solids were placed at 80° C. for 24 hours, the physical and chemical stability of the samples were tested by XRPD and HPLC."}, "[3]": {"test": "Dynamic solubility in water, SGF, FaSSIF and FeSSIF", "set-up": "S (dynamic solubility): unit not given here", "details": "listed as Di-p-toluenesulfonate salt crystal form A-IV; for S (dynamic solubility): 37° C., feed 10 mg/mL", "description": "Biological solvent Preparation • 1. […] 67.5 μL of concentrated hydrochloric acid (12 M) was added and the mixture was adjusted to a pH value of 1.8 with 1 M hydrochloric acid or 1 M NaOH solution. Purified water was added to make up to volume. • 2. Preparation of Fasted State Simulated Intestinal Fluid (FaSSIF): 0.17 g of anhydrous NaH2PO4, 0.021 g of NaOH, and 0.31 g of NaCl were weighed into a 50-mL volumetric flask. About 48 mL of purified water was added to dissolve the mixture completely, and the solution was adjusted to a pH value of 6.5 with 1 M hydrochloric acid or 1 M NaOH solution. Purified water was added to make up to volume. 0.11 g of SIF powder was added and dissolved completely. • 3. Preparation of Fed State Simulated Intestinal Fluid (FeSSIF): 0.41 mL of glacial acetic acid, 0.20 g of NaOH and 0.59 g of NaCl were weighed into a 50-mL volumetric flask. About 48 mL of purified water was added to dissolve the mixture completely, and the solution was adjusted to a pH value of 5.0 with 1 M hydrochloric acid or 1 M NaOH solution. Purified water was added to make up to volume. 0.56 g of SIF powder was added and dissolved completely.\nThe dynamic solubility of the free state, the mucate salt crystal form A-I, the p-toluenesulfonate salt crystal form A-II, the di-p-toluenesulfonate salt crystal form A-IV and the phosphate salt crystal form A-V of the compound of formula (I) in water and three biological solvents was evaluated.\nThe samples at each time point were centrifuged and filtered (0.45 μm PTFE filter head), and the HPLC concentration and pH value of the filtrate were determined."}}, "data": [{"compound": "O=C(Nc1ccc(F)cc1)C1(C(=O)Nc2ccc(Oc3ccnc4cc(OCCCN5CCOCC5)c5c(c34)OCCO5)c(F)c2)CC1", "note": "[Example 4, N-(3-fluoro-4-((5-(3-morpholinopropoxy)-2,3-dihydro-[1,4]dioxano[2,3-f]quinolin-10-yl)oxy)phenyl)-N-(4-fluorophenyl)cyclopropane-1,1-dicarboxamide]", "values": [{"measurement": "Moisture adsorption (25° C./80% RH)", "setting": "[1]; 25° C./80% RH", "result": 3.70, "unit": "%"}, {"measurement": "Hygroscopicity", "setting": "[1]; 25° C.", "result": "Hygroscopic"}, {"measurement": "Purity", "setting": "[2]; 25° C./60% RH, 1 week", "result": 99.19, "unit": "area %"}, {"measurement": "Purity/initial purity", "setting": "[2]; 25° C./60% RH, 1 week", "result": 100.0, "unit": "%"}, {"measurement": "Purity", "setting": "[2]; 40° C./75% RH, 1 week", "result": 99.25, "unit": "area %"}, {"measurement": "Purity/initial purity", "setting": "[2]; 40° C./75% RH, 1 week", "result": 100.1, "unit": "%"}, {"measurement": "Purity", "setting": "[2]; Starting", "result": 99.18, "unit": "area %"}, {"measurement": "S (dynamic solubility)", "setting": "[3]; FaSSIF, 1 hour", "result": 0.035}, {"measurement": "pH of the filtrate", "setting": "[3]; FaSSIF, 1 hour", "result": 5.6}, {"measurement": "S (dynamic solubility)", "setting": "[3]; FaSSIF, 2 hours", "result": 0.080}, {"measurement": "pH of the filtrate", "setting": "[3]; FaSSIF, 2 hours", "result": 5.2}, {"measurement": "S (dynamic solubility)", "setting": "[3]; FaSSIF, 4 hours", "result": 0.16}, {"measurement": "pH of the filtrate", "setting": "[3]; FaSSIF, 4 hours", "result": 5.0}, {"measurement": "S (dynamic solubility)", "setting": "[3]; FaSSIF, 24 hours", "result": 0.20}, {"measurement": "pH of the filtrate", "setting": "[3]; FaSSIF, 24 hours", "result": 5.0}, {"measurement": "S (dynamic solubility)", "setting": "[3]; FeSSIF, 1 hour", "result": 1.6}, {"measurement": "pH of the filtrate", "setting": "[3]; FeSSIF, 1 hour", "result": 4.9}, {"measurement": "S (dynamic solubility)", "setting": "[3]; FeSSIF, 2 hours", "result": 1.8}, {"measurement": "pH of the filtrate", "setting": "[3]; FeSSIF, 2 hours", "result": 4.8}, {"measurement": "S (dynamic solubility)", "setting": "[3]; FeSSIF, 4 hours", "result": 1.4}, {"measurement": "pH of the filtrate", "setting": "[3]; FeSSIF, 4 hours", "result": 4.8}, {"measurement": "S (dynamic solubility)", "setting": "[3]; FeSSIF, 24 hours", "result": 1.0}, {"measurement": "pH of the filtrate", "setting": "[3]; FeSSIF, 24 hours", "result": 4.9}, {"measurement": "S (dynamic solubility)", "setting": "[3]; H2O, 1 hour", "result": 2.9}, {"measurement": "pH of the filtrate", "setting": "[3]; H2O, 1 hour", "result": 3.7}, {"measurement": "S (dynamic solubility)", "setting": "[3]; H2O, 2 hours", "result": 2.9}, {"measurement": "pH of the filtrate", "setting": "[3]; H2O, 2 hours", "result": 3.9}, {"measurement": "S (dynamic solubility)", "setting": "[3]; H2O, 4 hours", "result": 2.8}, {"measurement": "pH of the filtrate", "setting": "[3]; H2O, 4 hours", "result": 3.8}, {"measurement": "S (dynamic solubility)", "setting": "[3]; H2O, 24 hours", "result": 2.7}, {"measurement": "pH of the filtrate", "setting": "[3]; H2O, 24 hours", "result": 3.8}, {"measurement": "S (dynamic solubility)", "setting": "[3]; SGF, 1 hour", "result": 4.5}, {"measurement": "pH of the filtrate", "setting": "[3]; SGF, 1 hour", "result": 1.9}, {"measurement": "S (dynamic solubility)", "setting": "[3]; SGF, 2 hours", "result": 4.6}, {"measurement": "pH of the filtrate", "setting": "[3]; SGF, 2 hours", "result": 1.9}, {"measurement": "S (dynamic solubility)", "setting": "[3]; SGF, 4 hours", "result": 4.3}, {"measurement": "pH of the filtrate", "setting": "[3]; SGF, 4 hours", "result": 1.9}, {"measurement": "S (dynamic solubility)", "setting": "[3]; SGF, 24 hours", "result": 4.2}, {"measurement": "pH of the filtrate", "setting": "[3]; SGF, 24 hours", "result": 1.9}]}]}
